Columns and labels:
Assay in all cases: relative viability (nuclei count vs DMSO), 5 days (fraction); higher = more cells survive
[1] = compound: C1/C(=C\C2=CC=CS2)/C(=O)/C(=C/C3=CC=CS3)/C1 + Cc1nc(NC(=O)N2CCC[C@H]2C(N)=O)sc1-c1ccnc(C(C)(C)C(F)(F)F)c1 [Alpelisib] (partner 2 µM)
Procedure, shortened: (§1)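 Nuclei were stained with Hoechst during a one-step fixation (final 0.05% Triton X-100, 1% formaldehyde, 1 ug/ml Hoechst) carried out 5 days after dosing, then counted on 4× images. The cells, lung cancer lines in 1536-well plates, had been dosed by pin tool the day after seeding with one drug alone or a fixed anchor-drug dose plus five library-drug doses (not always all listed) in √10 steps. Relative viability is the nuclei count in treated wells divided by that in vehicle wells, and each value is the median of duplicate plates.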

TPCA-1 + Lapatinib = compound: C1=CC(=CC=C1C2=CC(=C(S2)NC(=O)N)C(=O)N)F [TPCA-1] + CS(=O)(=O)CCNCc1ccc(-c2ccc3ncnc(Nc4ccc(OCc5cccc(F)c5)c(Cl)c4)c3c2)o1 [Lapatinib] (partner 2 µM)
Procedure, shortened: as §1

TPCA-1 + Trametinib = compound: C1=CC(=CC=C1C2=CC(=C(S2)NC(=O)N)C(=O)N)F [TPCA-1] + CC(=O)Nc1cccc(-n2c(=O)n(C3CC3)c(=O)c3c(Nc4ccc(I)cc4F)n(C)c(=O)c(C)c32)c1 [Trametinib] (partner 0.02 µM)
Procedure, shortened: as §1

[2] = compound: C1/C(=C\C2=CC=CS2)/C(=O)/C(=C/C3=CC=CS3)/C1 + O=C(c1cc(Cc2n[nH]c(=O)c3ccccc23)ccc1F)N1CCN(C(=O)C2CC2)CC1 [Olaparib] (partner 8 µM)
Procedure, shortened: as §1

| Cell Line | relative viability ([1]; first compound 0.2 µM) | relative viability ([1]; first compound 0.6325 µM) | relative viability ([1]; first compound 2 µM) | relative viability ([1]; first compound 6.325 µM) | relative viability ([1]; first compound 20 µM) | relative viability (TPCA-1 + Lapatinib; first compound 0.04 µM) | relative viability (TPCA-1 + Lapatinib; first compound 0.1265 µM) | relative viability (TPCA-1 + Lapatinib; first compound 0.4 µM) | relative viability (TPCA-1 + Lapatinib; first compound 1.265 µM) | relative viability (TPCA-1 + Lapatinib; first compound 4 µM) | relative viability (TPCA-1 + Trametinib; first compound 0.04 µM) | relative viability (TPCA-1 + Trametinib; first compound 0.1265 µM) | relative viability (TPCA-1 + Trametinib; first compound 0.4 µM) | relative viability (TPCA-1 + Trametinib; first compound 1.265 µM) | relative viability (TPCA-1 + Trametinib; first compound 4 µM) | relative viability ([2]; first compound 0.2 µM) | relative viability ([2]; first compound 0.6325 µM) | relative viability ([2]; first compound 2 µM) | relative viability ([2]; first compound 6.325 µM) | relative viability ([2]; first compound 20 µM) |
| --- | --- | --- | --- | --- | --- | --- | --- | --- | --- | --- | --- | --- | --- | --- | --- | --- | --- | --- | --- | --- |
| 201T | 1.01 | 0.964 | 1.08 | 0.934 | 1 | 1.05 | 1.02 | 1.01 | 1.01 | 1.05 | 0.717 | 0.729 | 0.691 | 0.733 | 0.751 | 0.866 | 0.856 | 0.858 | 0.775 | 0.84 |
| A549 | 0.608 | 0.867 | 0.746 | 0.483 | 0.73 | 1.03 | 0.922 | 1.1 | 0.959 | 0.969 |  |  |  |  |  | 0.352 | 0.283 | 0.642 | 0.286 | 0.354 |
| A-427 | 1.12 | 1.06 | 1.18 | 1.04 | 1.01 | 1.17 | 0.901 | 1.05 | 0.989 | 0.907 | 0.771 | 0.652 | 0.875 | 0.68 | 0.718 | 0.802 | 0.797 | 0.762 | 0.467 | 0.786 |
| ABC-1 | 1.06 | 1.17 | 1.11 | 0.881 | 0.739 | 1.19 | 1.06 | 1.22 | 1.21 | 0.854 |  |  |  |  |  | 1.02 | 0.984 | 1.11 | 0.842 | 0.779 |
| BEN | 1.02 | 0.981 | 0.977 | 0.972 | 1.07 | 0.731 | 0.5 | 0.672 | 0.793 | 0.661 | 1.04 | 0.736 | 1.18 | 1.39 | 1.04 | 1.15 | 1.03 | 1.19 | 1.04 | 0.944 |
| CAL-12T | 1.33 | 1.15 | 0.95 | 0.856 | 1.13 | 0.638 | 0.582 | 0.708 | 0.38 | 0.389 | 0.326 | 0.331 | 0.345 | 0.358 | 0.254 | 0.691 | 0.749 | 0.742 | 0.648 | 0.733 |
| COR-L23 | 0.772 | 0.829 | 0.818 | 0.722 | 0.686 | 1.09 | 0.859 | 0.903 | 1.09 | 0.678 | 0.715 | 0.512 | 0.713 | 0.547 | 0.33 | 0.408 | 0.367 | 0.323 | 0.388 | 0.325 |
| COR-L 105 | 1.36 | 1.02 | 0.902 | 0.728 | 0.913 | 0.379 | 0.368 | 0.384 | 0.272 | 0.268 | 0.542 | 0.321 | 0.422 | 0.505 | 0.407 | 0.753 | 0.757 | 0.646 | 0.434 | 0.618 |
| Calu-6 | 0.971 | 1.08 | 1.04 | 0.849 | 1.01 | 1.15 | 1.04 | 1.01 | 0.956 | 0.91 |  |  |  |  |  | 0.548 | 0.595 | 0.55 | 0.586 | 0.524 |
